Assay results: ChEMBL document CHEMBL4316587, “Identification of 3-(benzazol-2-yl)quinoxaline derivatives as potent anticancer compounds: Privileged structure-based design, synthesis, and bioactive evaluation in vitro and in vivo” (Eur J Med Chem, 2019)
Calls of active or inactive are those of the source. The rule behind the calls is not given here.

Key:
HeLa = experiment: cells; details: Homo sapiens, 48 h
MGC-803 [1] = experiment: Antiproliferative activity against human MGC803 cells after 48 hrs by MTT assay; assay type: functional, cell-based; details: MGC-803, 48 h
HepG2 = experiment: Antiproliferative activity against human HepG2 cells after 48 hrs by MTT assay; assay type: functional, cell-based; details: HepG2, 48 h
WI-38 = experiment: Antiproliferative activity against human WI38 cells after 48 hrs by MTT assay; assay type: cell-based; details: WI-38, 48 h
MGC-803 [2] = experiment: Antitumor activity against human MGC803 cells xenografted in BALB/C mouse assessed as tumor growth inhibition at 6 mg/kg, ip dosed every other day for 16 days relative to control; assay type: functional; details: MGC-803, ip, read-out: TGI
A549 = experiment: cells; details: Homo sapiens, A549, 48 h
T-24 = experiment: Antiproliferative activity against human T24 cells after 48 hrs by MTT assay; assay type: functional, cell-based; details: T-24, 48 h
[3] = biological target: T1, DNA topoisomerase 1 (Homo sapiens) (UniProt P11387); experiment: Inhibition of topoisomerase 1 (unknown origin) using pBR322 DNA as substrate assessed as reduction in pBR322 DNA unwinding at 50 uM after 30 mins by ethidium bromide staining-based agarose gel electrophoresis analysis
T1 sequence (whole entry): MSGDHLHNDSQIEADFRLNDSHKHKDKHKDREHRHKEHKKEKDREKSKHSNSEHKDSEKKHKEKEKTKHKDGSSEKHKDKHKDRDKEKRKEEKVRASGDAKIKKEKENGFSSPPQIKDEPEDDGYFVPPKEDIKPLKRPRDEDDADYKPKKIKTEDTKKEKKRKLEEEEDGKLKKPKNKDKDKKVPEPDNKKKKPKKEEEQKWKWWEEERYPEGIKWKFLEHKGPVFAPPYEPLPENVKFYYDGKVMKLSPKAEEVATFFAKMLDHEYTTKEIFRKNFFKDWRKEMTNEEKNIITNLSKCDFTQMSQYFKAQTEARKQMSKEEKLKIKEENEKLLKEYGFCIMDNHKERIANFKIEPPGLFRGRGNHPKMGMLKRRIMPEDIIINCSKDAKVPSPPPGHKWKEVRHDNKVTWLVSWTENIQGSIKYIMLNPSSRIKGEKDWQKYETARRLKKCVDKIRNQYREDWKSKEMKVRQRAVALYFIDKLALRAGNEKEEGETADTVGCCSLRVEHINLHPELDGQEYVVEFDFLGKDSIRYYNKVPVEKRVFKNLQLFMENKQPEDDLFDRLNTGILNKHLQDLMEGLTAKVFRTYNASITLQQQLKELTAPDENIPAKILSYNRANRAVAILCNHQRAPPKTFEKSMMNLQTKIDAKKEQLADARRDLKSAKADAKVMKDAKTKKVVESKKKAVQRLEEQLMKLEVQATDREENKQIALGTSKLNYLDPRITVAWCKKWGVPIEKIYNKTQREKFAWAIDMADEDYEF

DNA = experiment: Binding affinity to Escherichia coli supercoiled pBR322 DNA assessed as DNA intercalation at 50 uM after 1 hr by ethidium bromide staining-based agarose gel electrophoresis analysis; assay type: nucleic-acid assay
[4] = biological target: T1, DNA topoisomerase 1 (Homo sapiens); experiment: Inhibition of topoisomerase 1 (unknown origin) at 50 uM using pBR322 DNA as substrate preincubated for 30 mins followed by substrate addition and measured after 30 mins by ethidium bromide staining-based agarose gel electrophoresis analysis

| SMILES | IC50 (HeLa) | IC50 (MGC-803 [1]) | IC50 (HepG2) | IC50 (A549) | inhibition [3] | Activity (DNA) | inhibition [4] | IC50 (WI-38) | inhibition in vivo at 6 mg/kg (MGC-803 [2]) | IC50 (T-24) |
| --- | --- | --- | --- | --- | --- | --- | --- | --- | --- | --- |
| CC[C@@]1(O)C(=O)OCc2c1cc1n(c2=O)Cc2cc3ccccc3nc2-1 [CAMPTOTHECIN] | 6.51 µM | 2.96 µM | 4.79 µM | 4.43 µM | – | – | – | 8.37 µM | 51.5% | 6.8 µM |
| c1ccc2nc(-c3nc4ccccc4o3)c(NCCN3CCOCC3)nc2c1 | > 100 µM | > 100 µM | > 100 µM | > 100 µM | – | – | – | > 100 µM | – | > 100 µM |
| c1ccc2nc(-c3nc4ccccc4[nH]3)c(NCCN3CCOCC3)nc2c1 | > 100 µM | > 100 µM | > 100 µM | > 100 µM | – | – | – | > 100 µM | – | > 100 µM |
| c1ccc2nc(-c3nc4ccccc4s3)c(NCCCN3CCOCC3)nc2c1 | > 100 µM | > 100 µM | > 100 µM | > 100 µM | – | – | – | > 100 µM | – | > 100 µM |
| c1ccc2nc(-c3nc4ccccc4s3)c(NCCN3CCOCC3)nc2c1 | > 100 µM | > 100 µM | > 100 µM | > 100 µM | – | – | – | > 100 µM | – | > 100 µM |
| c1ccc2nc(-c3nc4ccccc4[nH]3)c(NCCCN3CCOCC3)nc2c1 | > 100 µM | > 100 µM | > 100 µM | > 100 µM | – | – | – | > 100 µM | – | > 100 µM |

Further lines, with some results ahead:

| IC50 (HeLa) | IC50 (MGC-803 [1]) | IC50 (HepG2) | IC50 (A549) | inhibition [3] | Activity (DNA) | inhibition [4] | SMILES | IC50 (WI-38) | inhibition in vivo at 6 mg/kg (MGC-803 [2]) | IC50 (T-24) |
| --- | --- | --- | --- | --- | --- | --- | --- | --- | --- | --- |
| > 100 µM | > 100 µM | > 100 µM | > 100 µM | – | – | – | c1ccc2nc(-c3nc4ccccc4o3)c(NCCCN3CCOCC3)nc2c1 | > 100 µM | – | > 100 µM |
| 10.8 µM | 11.5 µM | 12.7 µM | 11.3 µM | inactive | inactive | inactive | CCN(CC)CCCNc1nc2ccccc2nc1-c1nc2c(ccc3ccccc32)o1 | 14.7 µM | – | 8 µM |
| 10.5 µM | 11.3 µM | 10.8 µM | 4.66 µM | inactive | inactive | inactive | CN(C)CCCNc1nc2ccccc2nc1-c1nc2c(ccc3ccccc32)o1 | 16.4 µM | – | 5.75 µM |
